Holding throughout (assay type): in vivo
Assay [1] relates to formalin pain. The assay is described as follows: formalin pain test. To be noted: Cavia porcellus, po; guinea-pig, administered perorally 1 hour before the test.
The subject of assay [2] is increase in capillary permeability caused by septide (agonist of substance P). Briefly: inhibition of the increase in capillary permeability caused by septide. To be noted: Cavia porcellus, guinea-pig. The text has this: The study of some isoindole derivatives of the general formula (I) by the technique of A. Saria et al., Arch.
The test system of assay [3] is bronchospasm induced by [Pro^9 ] substance P. The assay is described as follows: inhibition of bronchospasm induced by [Pro9] substance P. To be noted: Cavia porcellus, iv; guinea-pig, bronchospasm induced by 3 μg/kg i.v. of [Pro9] substance P; read-out: ED50, dose which reduces by 50% the bronchospasm. The text has this:
Injection of substance P causes a bronchospasm in the animal. The bronchoconstriction induced in vivo in the guinea-pig by injection of substance P or a selective agonist of substance P:. [Pro^9 ] substance P, is studied by the technique of H. Konzett and R. Rosseler, Archiv. Exp. Path. Pharmak., 195, 71-74 (1940). This bronchoconstriction is inhibited by injection of a product according to the invention, which is evidence of an antiasthmatic activity. The ED50, the dose which reduces by 50% the bronchospasm induced by 3 μg/kg i.v. of [Pro^9 ] substance P, is determined. In this technique, the ED50 of the product of Example 1 is 0.7 mg/kg i.v.

Assay [4] has as its system hypotension induced by substance P. The assay is described as follows: antagonism of hypotension induced by substance P. To be noted: Cavia porcellus, iv; guinea-pig, hypotension induced by i.v. injection of 250 ng/kg of substance P; read-out: ED50, dose which reduces by 50% the hypotension. The method, then:
Injection of substance P in animals causes hypotension. The products studied by the technique of C. A. Maggi et al., J. Auton. […] The ED50, the dose which reduces by 50% the hypotension induced by an i.v. injection of 250 ng/kg of substance P, is determined.

For `COc1ccccc1[C@H](C)C(=O)N1C[C@@H]2[C@H](C1)C(c1ccccc1)(c1ccccc1)CC[C@@]2(O)c1ccccc1OC` [Example 1, (3aS,4S,7aS)-7,7-diphenyl-4-(2-methoxyphenyl)-2-[(S)-2-(2methoxyphenyl)propionyl]perhydroisoindol-4-ol], the ED50 in assay [1] came out at 11 mg/kg; in assay [2] (iv), 0.04 mg/kg; in assay [2] (po), 3.5 mg/kg; in assay [3], 0.7 mg/kg; in assay [4], 0.15 mg/kg.

As usually defined, the ED50 is the dose that gives a 50% effect, or the effect in half of the subjects.

For the origin of these results see patent US5484804A, “Perhydroisoindole derivatives as antagonists of substance P” (Rhone-Poulenc Rorer S.A., priority 1992, dated 1996).
